The test system of data set [1] is nauplii of Artemia salina. Nature of the data set: Anti-arthropod activity, 96 well plate. The format is in vivo. As to conditions: at 20 μg/ml, observed after 2 days under microscope. As to the method:
(§1) Methanol solution of FKI-1033 substance was added into 96 well plate (Corning Inc., the U.S.), removed off methanol in vacuo, added 250 μl of test medium (lecithin 0.01%, sodium hydrogen carbonate 7.5 mM, potassium chloride 7.5 mM, calcium chloride dihydrate 7.5 mM and magnesium sulfate heptahydrate 7.5 mM) and shaken for 15 min. 50 μl of buffer containing several nauplii of Artemia salina, which were hatched off in the buffer, was added thereto, and about ten nematodes, Caenorhabditis elegans, which were bred on agar medium for growth of nematode, were added thereto.

For data set [2], the system named is Caenorhabditis elegans. Nature of the data set: Anti-nematode activity, 96 well plate. The format is in vivo. The conditions noted are these: at 20 μg/ml, observed after 2 days under microscope. The protocol: as §1
Data set [3] can be described thus: Solubility in solvent. It counts as physicochemical.
Data set [4] addresses ryanodine receptor of mouse origin (Mus musculus, UniProt E9PZQ0). Nature of the data set: Ryanodine binding inhibition, crude mammalian ryanodine receptor.
Procedure: (2) Preparation of Mammalian Crude Ryanodine Receptor Fraction was Performed as Follows.
Muscles of the hind legs of ICR mouse were finely cut, and 3.0 g thereof was homogenized at 0° C., 1,000 rpm for 3×30 sec using glass homogenizer in 15 ml of buffer B (20 mM Tris-HCl buffer (pH 8.0) containing 4 μg/ml aprotinin and 4 μg/ml leupeptin). The homogenate was transferred into the micro test tube, and the glass homogenizer was also washed with the 7.5 ml of buffer B, and the washed solution was also added to the micro test tube, which was stirred, then centrifuged by using ultracentrifuge cooled at 4° C., 25,000×g for 40 min. 2.4 ml of the buffer B was added to the obtained precipitate and suspended to obtain the crude ryanodine receptor fraction of mouse origin.
(4) Binding Activity of Crude Mammalian Ryanodine Receptor was Assayed aAs Follows.
70 μl of the buffer A, 10 μl of ethanol solution of 0.1 nM ryanodine and 10 μl of 20 nM [9,21-^3H] (N) ryanodine were added into the 96 well microplate (Corning Inc. the U.S.). 10 μl of crude ryanodine receptor fraction of mouse origin was added to initiate the reaction, and shaken at room temperature for 90 min. by using microplate mixer. […] Radioactivity was measured by measuring fluorescence intensity of the filter with using scintillation counter (Wallac Inc. the U.S., MicroBeta™ TriLux).
In data set [5] the target is T1, ryanodine receptor of Periplaneta americana origin (Periplaneta americana, UniProt A0ABQ8T696).
T1 sequence (A0ABQ8T696 1-1387): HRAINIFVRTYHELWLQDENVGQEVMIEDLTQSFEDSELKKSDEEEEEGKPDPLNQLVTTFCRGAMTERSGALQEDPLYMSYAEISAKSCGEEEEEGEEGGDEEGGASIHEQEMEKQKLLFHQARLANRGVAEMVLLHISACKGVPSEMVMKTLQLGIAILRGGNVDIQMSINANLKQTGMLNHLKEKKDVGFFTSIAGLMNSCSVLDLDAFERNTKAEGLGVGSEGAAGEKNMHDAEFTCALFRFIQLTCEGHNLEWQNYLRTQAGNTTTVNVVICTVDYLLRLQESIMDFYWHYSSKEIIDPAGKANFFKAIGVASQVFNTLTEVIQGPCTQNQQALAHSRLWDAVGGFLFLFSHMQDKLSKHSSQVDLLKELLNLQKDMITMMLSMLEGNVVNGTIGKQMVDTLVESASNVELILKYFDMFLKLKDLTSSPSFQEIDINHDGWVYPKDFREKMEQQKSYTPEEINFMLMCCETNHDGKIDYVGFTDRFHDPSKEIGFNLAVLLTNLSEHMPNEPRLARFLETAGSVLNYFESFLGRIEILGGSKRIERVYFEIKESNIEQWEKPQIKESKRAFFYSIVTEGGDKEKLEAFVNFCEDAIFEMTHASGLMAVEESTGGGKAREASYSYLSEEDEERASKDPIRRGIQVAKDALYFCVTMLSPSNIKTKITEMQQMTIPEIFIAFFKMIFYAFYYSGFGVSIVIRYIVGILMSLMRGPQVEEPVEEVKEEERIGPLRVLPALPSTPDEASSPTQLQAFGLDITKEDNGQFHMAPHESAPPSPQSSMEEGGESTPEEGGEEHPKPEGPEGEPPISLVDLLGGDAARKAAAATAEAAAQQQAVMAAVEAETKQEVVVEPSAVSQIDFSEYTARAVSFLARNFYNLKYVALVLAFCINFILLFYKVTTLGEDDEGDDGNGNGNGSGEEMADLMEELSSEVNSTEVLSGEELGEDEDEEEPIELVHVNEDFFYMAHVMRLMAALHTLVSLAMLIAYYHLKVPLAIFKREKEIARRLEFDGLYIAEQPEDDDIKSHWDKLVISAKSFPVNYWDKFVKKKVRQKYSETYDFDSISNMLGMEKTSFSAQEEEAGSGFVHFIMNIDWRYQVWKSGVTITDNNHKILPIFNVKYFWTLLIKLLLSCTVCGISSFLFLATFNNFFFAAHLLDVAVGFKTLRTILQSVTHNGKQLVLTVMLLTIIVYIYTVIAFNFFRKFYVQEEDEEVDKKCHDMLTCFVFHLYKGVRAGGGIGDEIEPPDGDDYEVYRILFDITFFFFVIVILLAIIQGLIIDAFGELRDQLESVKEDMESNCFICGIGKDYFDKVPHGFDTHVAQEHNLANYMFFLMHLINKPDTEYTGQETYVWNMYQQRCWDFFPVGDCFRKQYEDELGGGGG
Nature of the data set: Ryanodine binding inhibition, crude ryanodine receptor of Periplaneta americana.
Procedure: (1) Preparation of the Crude Ryanodine Receptor Fraction of the Insect was Performed as Follows.
The thorax and legs of ten adult insects of Periplaneta americana were frozen with liquid nitrogen and finely cut, and homogenized three times in 15 ml of 50 mM Tris HCl buffer (pH 7.4) containing 4 μg/ml leupeptin and 3 μg/ml pepstatin by using a knife homogenizer at 0° C., 24,000 rpm for 30 sec. The homogenate was filtered using double layered cotton cloth and the filtrate was centrifuged at 4° C., 3,000 rpm for 20 minutes. The obtained supernatant was centrifuged at 4° C., 30,000 rpm for 30 minutes and the precipitate suspended in 1 ml of 20 mM Tris HCl buffer (pH 8.0) containing 0.3 M sucrose, 500 μM calcium chloride and 1.5 M potassium chloride and homogenized with glass potter to obtain crude ryanodine receptor fraction. The crude ryanodine receptor fraction was used by diluting about 7 times with the buffer A (20 mM Tris-HCl buffer (pH 8.0) containing 4 μg/ml aprotinin, 4 μgμml leupeptin, 0.3 M sucrose and 500 μM calcium chloride) immediately before use. […]
70 μl of the buffer A, 10 μl of ethanol solution of 0.1 nM ryanodine and 10 μl of 20 nM [9,21-^3H] […] Radioactivity was measured by measuring fluorescence intensity of the filter with using scintillation counter (Wallac Inc. the U.S., MicroBeta™ TriLux)

As a reminder, the IC50 is the concentration that inhibits the measured activity by half.

Chain of ryanodine receptor of mouse origin (E9PZQ0 whole entry): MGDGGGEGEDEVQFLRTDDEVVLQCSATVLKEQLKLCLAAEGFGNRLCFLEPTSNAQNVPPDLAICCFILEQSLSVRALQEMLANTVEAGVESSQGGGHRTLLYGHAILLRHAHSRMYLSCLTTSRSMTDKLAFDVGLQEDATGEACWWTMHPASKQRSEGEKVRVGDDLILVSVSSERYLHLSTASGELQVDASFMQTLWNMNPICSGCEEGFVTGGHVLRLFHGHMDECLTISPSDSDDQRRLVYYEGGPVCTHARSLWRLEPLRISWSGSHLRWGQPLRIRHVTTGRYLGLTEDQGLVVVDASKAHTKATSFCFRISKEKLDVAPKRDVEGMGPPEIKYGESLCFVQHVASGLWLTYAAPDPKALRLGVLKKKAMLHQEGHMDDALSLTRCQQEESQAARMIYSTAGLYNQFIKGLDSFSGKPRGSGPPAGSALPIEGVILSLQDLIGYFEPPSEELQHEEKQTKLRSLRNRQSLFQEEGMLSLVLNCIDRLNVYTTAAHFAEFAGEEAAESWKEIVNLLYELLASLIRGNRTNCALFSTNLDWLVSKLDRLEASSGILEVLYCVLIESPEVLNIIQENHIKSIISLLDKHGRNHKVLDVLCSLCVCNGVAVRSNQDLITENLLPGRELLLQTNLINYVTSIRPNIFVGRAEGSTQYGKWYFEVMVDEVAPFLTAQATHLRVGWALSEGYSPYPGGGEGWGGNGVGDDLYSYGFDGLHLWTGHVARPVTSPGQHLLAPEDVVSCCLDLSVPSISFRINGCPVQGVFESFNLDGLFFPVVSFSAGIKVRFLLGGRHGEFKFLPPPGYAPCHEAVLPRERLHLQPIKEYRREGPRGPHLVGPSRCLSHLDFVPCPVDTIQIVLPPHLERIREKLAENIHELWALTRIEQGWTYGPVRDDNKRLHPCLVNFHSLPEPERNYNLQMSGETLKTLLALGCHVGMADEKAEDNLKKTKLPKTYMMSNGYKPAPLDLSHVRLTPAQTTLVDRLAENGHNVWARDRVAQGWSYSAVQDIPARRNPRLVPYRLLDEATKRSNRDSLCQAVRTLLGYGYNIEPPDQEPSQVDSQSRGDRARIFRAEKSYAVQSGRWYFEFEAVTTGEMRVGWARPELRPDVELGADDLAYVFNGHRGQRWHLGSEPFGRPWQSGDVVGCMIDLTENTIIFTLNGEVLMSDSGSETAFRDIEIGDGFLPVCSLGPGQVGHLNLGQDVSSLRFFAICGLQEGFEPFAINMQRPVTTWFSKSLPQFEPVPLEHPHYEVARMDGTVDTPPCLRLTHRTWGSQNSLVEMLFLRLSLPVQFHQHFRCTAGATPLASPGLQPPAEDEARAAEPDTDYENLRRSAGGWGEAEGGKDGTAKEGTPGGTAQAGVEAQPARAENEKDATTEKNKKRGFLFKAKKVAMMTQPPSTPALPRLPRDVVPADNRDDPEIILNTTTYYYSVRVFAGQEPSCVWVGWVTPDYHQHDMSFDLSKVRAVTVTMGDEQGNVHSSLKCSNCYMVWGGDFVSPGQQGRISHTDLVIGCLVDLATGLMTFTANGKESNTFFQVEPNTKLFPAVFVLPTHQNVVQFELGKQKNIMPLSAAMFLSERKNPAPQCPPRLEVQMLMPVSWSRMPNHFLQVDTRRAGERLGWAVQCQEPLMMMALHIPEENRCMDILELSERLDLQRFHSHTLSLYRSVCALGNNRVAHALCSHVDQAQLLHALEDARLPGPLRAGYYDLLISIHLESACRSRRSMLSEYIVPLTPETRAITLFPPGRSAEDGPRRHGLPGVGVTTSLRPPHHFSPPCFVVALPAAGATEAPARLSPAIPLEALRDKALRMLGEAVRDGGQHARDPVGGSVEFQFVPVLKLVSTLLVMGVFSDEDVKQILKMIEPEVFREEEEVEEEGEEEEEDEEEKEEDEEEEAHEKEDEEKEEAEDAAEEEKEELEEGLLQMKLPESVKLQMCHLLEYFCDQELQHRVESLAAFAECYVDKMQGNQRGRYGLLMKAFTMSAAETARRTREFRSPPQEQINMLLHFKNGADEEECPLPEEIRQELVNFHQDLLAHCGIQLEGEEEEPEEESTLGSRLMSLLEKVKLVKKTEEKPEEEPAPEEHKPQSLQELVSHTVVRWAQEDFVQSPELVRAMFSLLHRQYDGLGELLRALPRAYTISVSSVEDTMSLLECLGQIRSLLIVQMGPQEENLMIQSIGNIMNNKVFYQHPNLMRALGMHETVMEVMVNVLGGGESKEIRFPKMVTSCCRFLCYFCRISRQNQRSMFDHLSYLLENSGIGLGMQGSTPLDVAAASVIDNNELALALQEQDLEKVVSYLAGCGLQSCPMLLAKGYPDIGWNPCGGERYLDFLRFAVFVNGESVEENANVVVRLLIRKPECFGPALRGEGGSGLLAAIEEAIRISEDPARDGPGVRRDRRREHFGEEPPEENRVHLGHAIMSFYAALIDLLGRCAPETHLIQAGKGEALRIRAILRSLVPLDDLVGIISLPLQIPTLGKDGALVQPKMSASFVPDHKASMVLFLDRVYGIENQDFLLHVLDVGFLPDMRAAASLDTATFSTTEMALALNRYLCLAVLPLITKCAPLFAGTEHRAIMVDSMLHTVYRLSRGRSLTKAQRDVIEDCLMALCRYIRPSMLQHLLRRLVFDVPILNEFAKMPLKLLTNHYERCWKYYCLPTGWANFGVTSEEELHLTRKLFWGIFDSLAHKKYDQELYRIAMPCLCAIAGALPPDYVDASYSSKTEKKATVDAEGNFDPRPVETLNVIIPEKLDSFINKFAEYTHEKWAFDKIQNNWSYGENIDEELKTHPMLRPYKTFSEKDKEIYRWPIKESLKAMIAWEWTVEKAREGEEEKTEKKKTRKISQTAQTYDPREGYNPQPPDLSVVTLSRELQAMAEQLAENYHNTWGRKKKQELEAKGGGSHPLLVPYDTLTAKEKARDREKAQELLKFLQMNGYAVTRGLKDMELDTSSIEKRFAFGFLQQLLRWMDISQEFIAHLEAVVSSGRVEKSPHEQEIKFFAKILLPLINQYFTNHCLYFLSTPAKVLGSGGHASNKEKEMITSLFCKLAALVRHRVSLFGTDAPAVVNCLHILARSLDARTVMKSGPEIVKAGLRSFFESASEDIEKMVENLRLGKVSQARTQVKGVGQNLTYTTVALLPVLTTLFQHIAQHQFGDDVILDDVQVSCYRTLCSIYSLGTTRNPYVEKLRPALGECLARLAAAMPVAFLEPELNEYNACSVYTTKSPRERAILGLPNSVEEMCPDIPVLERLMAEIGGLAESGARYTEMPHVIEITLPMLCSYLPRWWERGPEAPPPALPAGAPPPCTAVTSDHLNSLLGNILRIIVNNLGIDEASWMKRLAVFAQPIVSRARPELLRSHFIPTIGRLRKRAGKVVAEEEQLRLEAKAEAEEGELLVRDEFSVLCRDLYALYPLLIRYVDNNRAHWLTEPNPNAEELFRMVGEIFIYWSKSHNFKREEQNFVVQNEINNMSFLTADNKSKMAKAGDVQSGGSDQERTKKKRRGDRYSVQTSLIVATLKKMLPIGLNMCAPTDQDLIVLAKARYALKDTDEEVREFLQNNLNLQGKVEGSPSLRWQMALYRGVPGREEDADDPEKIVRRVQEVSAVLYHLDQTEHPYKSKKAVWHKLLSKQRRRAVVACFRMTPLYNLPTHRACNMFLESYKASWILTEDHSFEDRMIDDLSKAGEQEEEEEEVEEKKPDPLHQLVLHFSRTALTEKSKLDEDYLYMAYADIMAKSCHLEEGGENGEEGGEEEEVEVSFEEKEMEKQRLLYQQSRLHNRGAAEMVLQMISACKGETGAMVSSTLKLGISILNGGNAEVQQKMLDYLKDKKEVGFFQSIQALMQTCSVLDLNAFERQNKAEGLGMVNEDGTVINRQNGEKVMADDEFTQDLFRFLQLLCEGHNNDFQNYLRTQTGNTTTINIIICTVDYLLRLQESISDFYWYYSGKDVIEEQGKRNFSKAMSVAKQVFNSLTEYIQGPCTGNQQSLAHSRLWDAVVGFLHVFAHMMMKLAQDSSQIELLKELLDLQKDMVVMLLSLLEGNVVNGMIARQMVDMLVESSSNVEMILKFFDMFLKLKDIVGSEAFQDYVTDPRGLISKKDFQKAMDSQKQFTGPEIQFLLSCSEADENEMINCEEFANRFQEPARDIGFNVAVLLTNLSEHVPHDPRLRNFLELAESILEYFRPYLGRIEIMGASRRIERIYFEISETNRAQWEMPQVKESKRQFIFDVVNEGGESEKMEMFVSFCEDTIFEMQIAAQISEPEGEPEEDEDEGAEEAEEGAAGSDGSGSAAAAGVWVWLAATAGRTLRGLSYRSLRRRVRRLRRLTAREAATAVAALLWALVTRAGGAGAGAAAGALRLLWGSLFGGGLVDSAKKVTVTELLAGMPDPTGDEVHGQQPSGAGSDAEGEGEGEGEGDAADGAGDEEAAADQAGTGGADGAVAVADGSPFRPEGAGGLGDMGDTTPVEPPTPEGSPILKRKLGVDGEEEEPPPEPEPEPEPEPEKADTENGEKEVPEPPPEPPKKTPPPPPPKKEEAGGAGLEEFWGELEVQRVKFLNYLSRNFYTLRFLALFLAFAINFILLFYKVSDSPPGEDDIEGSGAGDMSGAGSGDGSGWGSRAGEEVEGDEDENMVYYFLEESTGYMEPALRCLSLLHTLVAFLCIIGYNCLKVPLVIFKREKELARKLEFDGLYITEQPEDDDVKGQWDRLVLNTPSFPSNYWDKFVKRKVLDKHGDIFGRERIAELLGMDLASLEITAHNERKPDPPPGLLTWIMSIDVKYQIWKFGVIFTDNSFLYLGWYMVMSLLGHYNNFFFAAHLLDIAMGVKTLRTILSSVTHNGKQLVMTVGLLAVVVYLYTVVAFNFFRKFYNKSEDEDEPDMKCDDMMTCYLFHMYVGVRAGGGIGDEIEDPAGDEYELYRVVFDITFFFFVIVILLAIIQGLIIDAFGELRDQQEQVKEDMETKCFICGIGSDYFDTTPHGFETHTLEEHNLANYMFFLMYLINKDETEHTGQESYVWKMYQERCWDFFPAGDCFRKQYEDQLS

Take `CCCCCC1OC(=O)C(C)N(C)C(=O)C(CCCCC)OC(=O)C(C)N(C)C(=O)C(CCCCC)OC(=O)C(C)N(C)C(=O)C(CCCCC)OC(=O)C(C)N(C)C1=O` (stereo not shown) [FKI-1033 substance]: the “growth inhibition of the arthropods (Artemia salina)” value in data set [1] is “inhibited growth”. Also, the “growth inhibition of the nematodes (Caenorhabditis elegans)” value in data set [2] is “inhibited growth”. For the same compound, the Solubility in solvent result in data set [3] (methanol, ethanol, ethyl acetate and chloroform) was “Soluble”; in data set [3] (water and n-hexane), “Hardly soluble”. In addition, the IC50 in data set [4] was determined as 53.9 µM; in data set [5] (read-out: ryanodine binding inhibition activity, IC50, crude ryanodine receptor fraction of Periplaneta americana, [9,21-3H](N) ryanodine, room temperature 90 min) it was 4.2 µM. Besides, the “potency of ryanodine binding inhibition against the insect ryanodine receptor versus the mammalian ryanodine receptor” value in data set [5] (insect (Periplaneta americana) vs mammalian (mouse) receptor) is on record as “more than ten times potent”.
